In US20090048214A1, “Methods for Treating Renal Tumors Using 2, 4-Pyrimidinediamine Drug and Prodrug Compounds” (RIGEL PHARMACEUTICALS, INC, priority 2006, published 2009):

Tests used:
OVCAR-5 = assay: cells; conditions: Homo sapiens
M14 = conditions: M14, Melanoma; besylate salt
RXF 393 [1] = conditions: RXF 393, Renal Cancer; besylate salt
HL-60(TB) = assay: cells; conditions: Homo sapiens
MDA-MB-435 = assay: cells; conditions: Homo sapiens
KM12 = assay: cells; conditions: Homo sapiens
HCC-2998 = assay: cells; conditions: Homo sapiens
EKVX = assay: cells; conditions: Homo sapiens
SK-MEL-5 = assay: cells; conditions: Homo sapiens
SR = conditions: Leukemia, besylate salt
UACC-62 = assay: cells; conditions: Homo sapiens, UACC-62, read-out: LC50
LOX I MVI [2] = conditions: Melanoma, besylate salt
TK-10 [3] = conditions: TK-10, Renal Cancer; besylate salt
SK-MEL-28 = conditions: SK-MEL-28, Melanoma; besylate salt
HCT-15 = assay: cells; conditions: Homo sapiens, HCT-15, read-out: LC50
TK-10 [4] = assay: cells; conditions: Homo sapiens, TK-10, read-out: LC50
T-47D = conditions: Breast Cancer, besylate salt
786-0 [5] = assay: cells; conditions: Homo sapiens
HCT-116 = conditions: HCT-116, Colon Cancer; besylate salt
MOLT-4 = conditions: MOLT-4, Leukemia; besylate salt
HOP-62 = conditions: HOP-62, Non-Small Cell Lung Cancer; besylate salt
OVCAR-8 [6] = assay: cells; conditions: Homo sapiens
NCI-H522 = conditions: NCI-H522, Non-Small Cell Lung Cancer; besylate salt
DU-145 = assay: cells; conditions: Homo sapiens, DU-145, read-out: LC50
SF-539 = assay: cells; conditions: Homo sapiens
SF-295 = assay: cells; conditions: Homo sapiens, SF-295, read-out: LC50
SK-OV-3 = assay: cells; conditions: Homo sapiens
A498 = assay: cells; conditions: Homo sapiens
UO-31 = assay: cells; conditions: Homo sapiens
SK-MEL-2 = conditions: SK-MEL-2, Melanoma; besylate salt
786-0 [7] = conditions: 786-0, Renal Cancer; besylate salt
NCI-H322M = conditions: Non-Small Cell Lung Cancer, besylate salt
RXF 393 [8] = assay: cells; conditions: Homo sapiens
LOX I MVI [9] = assay: cells; conditions: Homo sapiens, LOX IMVI
K-562 = conditions: K-562, Leukemia; besylate salt
SNB-19 = assay: cells; conditions: Homo sapiens
IGROV1 = assay: cells; conditions: Homo sapiens
OVCAR-8 [10] = conditions: OVCAR-8, Ovarian Cancer; besylate salt

COc1cc(Nc2ncc(F)c(Nc3ccc4c(n3)NC(=O)C(C)(C)O4)n2)cc(OC)c1OC [Compound 1]
0.355 µM: IC50 (KM12; KM12, read-out: G150)
0.36 µM: IC50 (A498; A498, read-out: G150)
>1.00E−4: TGI (M14) | TGI (SR) | TGI (TK-10 [3]) | TGI (SK-MEL-28) | TGI (T-47D) | TGI (HCT-116) | TGI (MOLT-4) | TGI (HOP-62) | TGI (NCI-H522) | TGI (SK-MEL-2) | TGI (786-0 [7]) | TGI (NCI-H322M) | TGI (K-562) | TGI (OVCAR-8 [10])
3.62 µM: IC50 (MDA-MB-435; MDA-MB-435, read-out: G150)
0.196 µM: IC50 (RXF 393 [8]; RXF 393, read-out: G150)
1.13E−6: TGI (LOX I MVI [2])
0.429 µM: IC50 (SK-OV-3; SK-OV-3, read-out: G150)
0.796 µM: IC50 (IGROV1; IGROV-1, read-out: G150)
0.605 µM: IC50 (SF-539; SF-539, read-out: G150)
1.66 µM: IC50 (EKVX; read-out: G150)
0.596 µM: IC50 (UO-31; UO-31, read-out: G150)
> 100 µM: IC50 (OVCAR-5; OVCAR-5, read-out: G150) | CC50 (OVCAR-5; OVCAR-5, read-out: LC50) | IC50 (HL-60(TB); HL-60, read-out: G150) | CC50 (HL-60(TB); HL-60, read-out: LC50) | CC50 (MDA-MB-435; MDA-MB-435, read-out: LC50) | CC50 (KM12; KM12, read-out: LC50) | IC50 (HCC-2998; HCC 2998, read-out: G150) | CC50 (HCC-2998; HCC 2998, read-out: LC50) | CC50 (EKVX; read-out: LC50) | IC50 (SK-MEL-5; SK-MEL-5, read-out: G150) | CC50 (SK-MEL-5; SK-MEL-5, read-out: LC50) | CC50 (UACC-62) | CC50 (HCT-15) | CC50 (TK-10 [4]) | CC50 (786-0 [5]; 786-0, read-out: LC50) | IC50 (OVCAR-8 [6]; OVCAR-8, read-out: G150) | CC50 (OVCAR-8 [6]; OVCAR-8, read-out: LC50) | CC50 (DU-145) | CC50 (SF-539; SF-539, read-out: LC50) | CC50 (SF-295) | CC50 (SK-OV-3; SK-OV-3, read-out: LC50) | CC50 (A498; A498, read-out: LC50) | CC50 (UO-31; UO-31, read-out: LC50) | CC50 (RXF 393 [8]; RXF 393, read-out: LC50) | CC50 (LOX I MVI [9]; read-out: LC50) | IC50 (SNB-19; SNB-19, read-out: G150) | CC50 (SNB-19; SNB-19, read-out: LC50) | CC50 (IGROV1; IGROV-1, read-out: LC50)
1.13 µM: IC50 (LOX I MVI [9]; read-out: G150)
7.74E−7: TGI (RXF 393 [1])
0.873 µM: IC50 (786-0 [5]; 786-0, read-out: G150)
